Target: T1, pre-miR-21 and RNase L (Homo sapiens, UniProt Q05823, H672N)
T1 construct: GST (N, cleaved yes); made in house; host or cells: BL21 AI Escherichia coli
T1 sequence (Q05823 1-741 H672N): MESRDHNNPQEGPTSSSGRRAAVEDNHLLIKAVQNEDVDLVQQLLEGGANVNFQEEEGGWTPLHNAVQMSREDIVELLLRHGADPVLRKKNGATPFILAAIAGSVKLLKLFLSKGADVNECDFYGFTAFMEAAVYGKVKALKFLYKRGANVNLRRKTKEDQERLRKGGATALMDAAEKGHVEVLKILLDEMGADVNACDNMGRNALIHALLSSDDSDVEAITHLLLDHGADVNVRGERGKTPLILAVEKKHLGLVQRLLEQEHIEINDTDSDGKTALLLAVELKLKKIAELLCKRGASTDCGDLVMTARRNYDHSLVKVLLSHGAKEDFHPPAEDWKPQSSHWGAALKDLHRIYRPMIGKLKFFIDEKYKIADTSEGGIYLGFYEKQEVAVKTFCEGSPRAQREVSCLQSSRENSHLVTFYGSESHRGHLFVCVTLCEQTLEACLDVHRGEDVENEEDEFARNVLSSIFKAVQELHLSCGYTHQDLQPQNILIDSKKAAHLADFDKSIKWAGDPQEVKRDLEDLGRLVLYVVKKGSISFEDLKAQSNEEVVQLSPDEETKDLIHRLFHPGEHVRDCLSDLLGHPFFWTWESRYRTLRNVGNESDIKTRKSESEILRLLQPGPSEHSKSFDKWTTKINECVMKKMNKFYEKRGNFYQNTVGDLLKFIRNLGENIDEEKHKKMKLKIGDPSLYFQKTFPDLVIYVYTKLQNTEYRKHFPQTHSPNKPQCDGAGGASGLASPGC
Assay: Co-immunoprecipitation of pre-miR-21 and RNase L
Assay type: binding
Details: WT 32P-pre-miR-21, inactive RNase L
Protocol: Co-Immunoprecipitation of pre-miR-2I and RNase L. Approximately 20,000 cpm of 32P 5′-end labeled WT or mutant pre-miR-21 or an RNA construct where the A-bulge was mutated to a base pair (5′-[…] UGGGCUGU-3′) was folded in 1× RNase L Assay Buffer for 1 min at 95° C. and cooled on ice for 10 min. Following cooling, β-mercaptoethanol (7 mM), ATP (50 μM), and MgCl2 (1 mM) were added to the solution. The solution was aliquoted, and compounds were incubated in solution for 15 min (1% DMSO final concentration). […] Beads were then washed with 1×PBS supplemented with 0.02% (v/v) Tween-20. Radioactive signal in the supernatant and associated with the beads was quantified by a Beckman Coulter LS6500 Liquid Scintillation Counter. Relative RNA enrichment was calculated by comparing the radioactive signal associated with beads compared to the total radioactive signal from the beads plus the supernatant.

Q: How did the “co-immunoprecipitation of RNA with RNase L” value turn out when `CNC(=O)[C@H](c1ccccc1)N(C)Cc1ccc(-c2cccc(-c3sccc3NC(=O)CCOCCOCCOCCC(=O)NCCN3CCN(c4ccc5nc(-c6c(N)c7c(F)cccc7[nH]c6=O)[nH]c5c4)CC3)c2)cc1` [RiboTAC 7, (S)—N-(2-(4-(2-(4-amino-5-fluoro-2-oxo-1,2-dihydroquinolin-3-yl)-1H-benzo[d]imidazol-6-yl)piperazin-1-yl)ethyl)-3-(2-(2-(3-((2-(4′-((methyl(2-(methylamino)-2-oxo-1-phenylethyl)amino)methyl)-[1,1′-biphenyl]-3-yl)thiophen-3-yl)amino)-3-oxopropoxy)ethoxy)ethoxy)propanamide] was run?
A: Its value is “pulled down with RNase L”.

— patent US20260167614A1, “IDENTIFICATION OF SMALL MOLECULES THAT RECRUIT AND ACTIVATE RNASE L” (UNIVERSITY OF FLORIDA RESEARCH FOUNDATION, INCORPORATED, priority 2022, published 2026)
